Measured values as given in patent US20260364088A1, “TASL MIMICKING MOLECULES AND APPLICATIONS THEREOF” (CEMM - FORSCHUNGSZENTRUM FÜR MOLEKULARE MEDIZIN GMBH, priority 2022, published 2026).

Tests used:
SLC15A4-GFP = SLC15A4-GFP (Homo sapiens, UniProt Q8N697); experiment: SLC15A4-GFP levels when expressed alone in HEK293T cells; assay type: cell-based; settings: 10 µM, 24 h
Procedure: Cells transfected with TASL-V5 plasmid were stained for V5-tag and detected with deep red Alexa Fluor 647 secondary antibody to allow for selection in the presence of an mCherry reporter. Cells were measured either immediately after staining or in the case of live cells immediately after harvesting and washing with PBS. Data were acquired on a BD FACSCalibur (BD Biosciences) and analyzed with FlowJo software (version 10).
For live cell imaging cells were plated in PhenoPlate 96-well plates or Ibidi m-Slide 8 (Ibidi) wells at 16 k/well and incubated over-night. Then compounds were added, if indicated, and cells were imaged after 24 h of incubation. Cells were stained with LysoTracker Deep Red L12492 (ThermoFisher) and Hoechst 34580 (ThermoFisher). […] Images were analyzed with Fiji-ImageJ.
Encouraged by the fact that the chemical entity of the present invention was showing the desired behavior and specificity profile, it became important to better clarify the molecular basis of this uncommon mechanism of action, i.e interference with a highly specific protein interaction leading to degradation of a single complex component. The effect of dTASL1 on complex assembly was first monitored. […]

IRF5 = experiment: Microscopy-based IRF5 nuclear translocation assay in CAL-1 cells; settings: human monocytic and pDC cell lines
Procedure: CAL-1, THP1 or human primary cells were incubated with dTASL1 and other identified compounds (or the corresponding volume of DMSO vehicle) for 24 h or 48 h at the indicated concentration and subsequently stimulated with R848 (5 μg/ml) for the indicated time. Supernatant or cells were recovered for ELISA, SDS-PAGE or microscopy-based analysis.
5×10^5 CAL-1 cells in 500 μl medium (wildtype, drug-treated or gene-deficient as indicated) were seeded on poly-L-lysine hydrobromide (P6282, Sigma-Aldrich)-coated coverslips in 24-well cell culture plates and immediately stimulated with 5 μg/ml R848 (Invivogen) or left unstimulated. Afterwards, medium was removed and cells were fixed with 4% formaldehyde in PBS for 15 minutes at room temperature (RT), followed by blocking and permeabilization with 5% FBS and 0.3% Triton X-100 in PBS for 1 h at RT. […]
Images were acquired on a Zeiss LSM-980 equipped with an AiryScan2 detector and processed in Zeiss ZEN version 3.6. Computational image analysis was performed with CellProfiler version 4.2.4 and data analyzed in R version 4.2.1 facilitating the following packages: ‘tidyverse’, ‘data.table’ and ‘ggpubr’. In brief nuclei and cytoplasmic regions were identified and nuclear to cytoplasmic median intensity ratios were calculated on a single cell level. […]

Sequence of SLC15A4-GFP (Q8N697 whole entry): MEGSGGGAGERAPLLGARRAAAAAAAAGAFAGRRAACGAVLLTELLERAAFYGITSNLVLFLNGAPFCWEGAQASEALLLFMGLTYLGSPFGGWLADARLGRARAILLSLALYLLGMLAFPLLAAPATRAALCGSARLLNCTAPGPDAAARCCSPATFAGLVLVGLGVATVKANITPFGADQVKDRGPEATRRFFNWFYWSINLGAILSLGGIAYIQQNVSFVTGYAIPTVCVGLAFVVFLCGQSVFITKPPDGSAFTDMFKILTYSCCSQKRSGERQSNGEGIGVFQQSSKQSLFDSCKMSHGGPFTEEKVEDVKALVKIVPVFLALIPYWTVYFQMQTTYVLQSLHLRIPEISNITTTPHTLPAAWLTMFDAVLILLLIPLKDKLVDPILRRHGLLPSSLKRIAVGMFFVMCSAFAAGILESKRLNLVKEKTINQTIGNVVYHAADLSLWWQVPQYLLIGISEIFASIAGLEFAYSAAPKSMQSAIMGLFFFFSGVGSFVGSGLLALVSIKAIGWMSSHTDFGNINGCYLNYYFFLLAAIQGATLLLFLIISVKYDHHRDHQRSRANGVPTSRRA

CCOc1ccc(-c2cc(C(=O)NCCCN3CCCCC3C)c3ccccc3n2)cc1 (centres unmarked) [dTASL1, 2-(4-ethoxyphenyl)-N-(3-(2-methylpiperidin-1-yl)propyl) quinoline-4-carboxamide]
total levels of SLC15A4-GFP (SLC15A4-GFP): did not affect total levels of SLC15A4-GFP | TLR7/8-induced IRF5 activation (IRF5): specifically impairs TLR7/8-induced IRF5 activation
